Assay results taken from US9926282B2, “Phthalazinones and isoquinolinones as rock inhibitors” (BRISTOL-MYERS SQUIBB COMPANY, priority 2013, dated 2018).
Like-named read-outs stand apart in the source and are kept apart here.

Columns and labels:
neointimal formation = settings: rats; cited from earlier work
[1] = system: congestive heart failure in Dahl salt-sensitive rats; settings: cited from earlier work
rat stroke model = settings: cited from earlier work
ROCK1 = ROCK1 (Homo sapiens (Human), UniProt Q13464); experiment: ROCK assay (LABCHIP peptide phosphorylation), ROCK1; format: biochemical
ROCK2 = ROCK2 (Homo sapiens (Human), UniProt O75116); experiment: ROCK assay (LABCHIP peptide phosphorylation), ROCK2; format: biochemical; settings: 5 μM ATP, 1.5 μM peptide substrate
[2] = 5 μM ATP, 1.5 μM peptide substrate, read-out: ROCK1 IC50

ROCK1, sequence (Q13464 whole entry, species assumed): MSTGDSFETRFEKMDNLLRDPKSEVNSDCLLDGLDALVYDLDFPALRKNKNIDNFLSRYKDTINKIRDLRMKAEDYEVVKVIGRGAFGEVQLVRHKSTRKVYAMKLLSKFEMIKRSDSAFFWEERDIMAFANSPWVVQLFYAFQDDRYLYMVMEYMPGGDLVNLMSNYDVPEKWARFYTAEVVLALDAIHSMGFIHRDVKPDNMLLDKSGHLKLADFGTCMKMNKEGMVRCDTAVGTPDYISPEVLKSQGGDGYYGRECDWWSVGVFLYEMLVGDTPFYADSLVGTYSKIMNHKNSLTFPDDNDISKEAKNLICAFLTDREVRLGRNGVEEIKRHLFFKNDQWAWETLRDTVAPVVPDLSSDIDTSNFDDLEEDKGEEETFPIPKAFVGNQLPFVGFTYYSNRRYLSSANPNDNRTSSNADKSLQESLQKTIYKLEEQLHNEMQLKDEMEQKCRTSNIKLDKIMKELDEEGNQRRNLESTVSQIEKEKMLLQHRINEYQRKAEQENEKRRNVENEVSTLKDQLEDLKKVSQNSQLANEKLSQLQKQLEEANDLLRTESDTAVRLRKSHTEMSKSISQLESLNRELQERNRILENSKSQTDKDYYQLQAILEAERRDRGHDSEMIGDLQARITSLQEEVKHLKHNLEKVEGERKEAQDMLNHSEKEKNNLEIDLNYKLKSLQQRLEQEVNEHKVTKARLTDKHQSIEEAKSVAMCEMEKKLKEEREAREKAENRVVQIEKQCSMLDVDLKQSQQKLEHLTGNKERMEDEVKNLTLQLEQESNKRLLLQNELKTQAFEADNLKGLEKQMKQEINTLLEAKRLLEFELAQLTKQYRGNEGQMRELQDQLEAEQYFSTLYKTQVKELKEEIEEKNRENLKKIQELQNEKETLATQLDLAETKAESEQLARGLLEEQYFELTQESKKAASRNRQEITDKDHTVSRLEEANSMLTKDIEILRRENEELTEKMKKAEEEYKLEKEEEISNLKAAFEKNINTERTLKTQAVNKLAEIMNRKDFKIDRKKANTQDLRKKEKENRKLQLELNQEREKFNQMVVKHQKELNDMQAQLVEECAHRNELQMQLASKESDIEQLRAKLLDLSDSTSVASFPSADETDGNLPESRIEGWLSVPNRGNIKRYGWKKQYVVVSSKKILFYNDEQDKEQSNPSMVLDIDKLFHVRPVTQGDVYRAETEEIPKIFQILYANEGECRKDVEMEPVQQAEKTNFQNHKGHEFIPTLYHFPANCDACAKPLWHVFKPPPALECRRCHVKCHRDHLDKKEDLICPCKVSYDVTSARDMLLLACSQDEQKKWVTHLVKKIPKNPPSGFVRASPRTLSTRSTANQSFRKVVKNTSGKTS
ROCK2, sequence (O75116 whole entry, species assumed): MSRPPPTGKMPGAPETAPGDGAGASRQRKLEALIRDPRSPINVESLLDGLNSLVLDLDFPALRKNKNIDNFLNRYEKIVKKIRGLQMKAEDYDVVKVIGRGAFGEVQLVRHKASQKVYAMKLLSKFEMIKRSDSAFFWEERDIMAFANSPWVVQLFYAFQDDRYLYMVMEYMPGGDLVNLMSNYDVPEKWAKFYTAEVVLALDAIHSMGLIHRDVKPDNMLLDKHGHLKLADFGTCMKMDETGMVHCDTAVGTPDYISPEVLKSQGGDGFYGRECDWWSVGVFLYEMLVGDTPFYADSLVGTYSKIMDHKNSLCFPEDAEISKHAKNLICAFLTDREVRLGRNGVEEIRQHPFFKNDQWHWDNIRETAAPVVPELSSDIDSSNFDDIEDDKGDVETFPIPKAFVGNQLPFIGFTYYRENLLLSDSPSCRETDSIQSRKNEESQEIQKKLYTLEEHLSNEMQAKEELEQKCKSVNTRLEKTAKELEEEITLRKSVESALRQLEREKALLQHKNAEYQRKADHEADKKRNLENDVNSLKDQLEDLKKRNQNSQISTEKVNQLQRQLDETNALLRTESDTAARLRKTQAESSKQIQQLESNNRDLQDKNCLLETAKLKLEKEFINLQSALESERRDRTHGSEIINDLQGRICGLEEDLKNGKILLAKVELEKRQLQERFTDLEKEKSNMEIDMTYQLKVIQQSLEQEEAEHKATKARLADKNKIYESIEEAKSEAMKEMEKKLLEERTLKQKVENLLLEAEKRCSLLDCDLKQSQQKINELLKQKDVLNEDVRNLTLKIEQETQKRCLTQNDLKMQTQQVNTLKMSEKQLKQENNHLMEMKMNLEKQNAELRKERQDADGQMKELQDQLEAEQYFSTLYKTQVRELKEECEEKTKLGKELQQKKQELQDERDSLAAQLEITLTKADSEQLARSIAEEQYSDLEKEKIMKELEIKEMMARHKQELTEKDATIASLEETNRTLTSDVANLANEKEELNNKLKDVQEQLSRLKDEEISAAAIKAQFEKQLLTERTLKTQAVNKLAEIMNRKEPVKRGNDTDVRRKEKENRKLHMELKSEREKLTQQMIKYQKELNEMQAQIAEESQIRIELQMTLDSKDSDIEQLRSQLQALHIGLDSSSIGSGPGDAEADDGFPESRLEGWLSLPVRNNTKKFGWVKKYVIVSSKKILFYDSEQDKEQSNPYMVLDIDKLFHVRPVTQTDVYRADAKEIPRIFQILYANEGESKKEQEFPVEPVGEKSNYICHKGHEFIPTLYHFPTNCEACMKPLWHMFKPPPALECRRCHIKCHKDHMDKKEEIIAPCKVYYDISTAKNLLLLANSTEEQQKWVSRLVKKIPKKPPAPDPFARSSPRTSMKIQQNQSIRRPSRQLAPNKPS

| Compound | IC50 (ROCK1; [2]) | IC50 (ROCK2) | other results |
| --- | --- | --- | --- |
| C[C@@H](N)[C@H]1CC[C@H](C(=O)Nc2ccncc2)CC1 [Example Y-27632] |  |  | neointimal formation (neointimal formation): inhibited neointimal formation; ventricular hypertrophy, fibrosis and function [1]: improve ventricular hypertrophy, fibrosis and function |
| O=S(=O)(c1cccc2cnccc12)N1CCCNCC1 [fasudil] |  |  | infarct size and neurologic deficit (rat stroke model): reduce both the infarct size and neurologic deficit |
| O=C(Cc1ccc(-c2n[nH]c(=O)c3ccccc23)c(F)c1)N1Cc2ccccc2C1 [Example 37, 4-(2-Fluoro-4-(2-(isoindolin-2-yl)-2-oxoethyl)phenyl)phthalazin-1(2H)-one] | 0.101 to 1 µM | 0.0001 to 0.1 µM |  |
| O=C(Nc1ccc(-c2n[nH]c(=O)c3ccccc23)cc1)C1CCc2ccccc21 (stereo not drawn) [Example 91, N-[4-(4-oxo-3,4-dihydrophthalazin-1-yl)phenyl]-2,3-dihydro-1H-indene-1-carboxamide] | 1 to 50 µM | 0.0001 to 0.1 µM |  |
| O=C(Nc1ccc(-c2n[nH]c(=O)c3ccccc23)cc1)c1cnn(-c2ccccc2)c1 [Example 191, N-[4-(4-oxo-3,4-dihydrophthalazin-1-yl)phenyl]-1-phenyl-1H-pyrazole-4-carboxamide] | 0.0001 to 0.1 µM | 0.0001 to 0.1 µM |  |
| COCC(O)Cn1cc(C(=O)Nc2ccc(-c3n[nH]c(=O)c4ccccc34)cc2)cn1 (stereo not drawn) [Example 379, 1-(2-Hydroxy-3-methoxypropyl)-N-(4-(4-oxo-3,4-dihydrophthalazin-1-yl)phenyl)-1H-pyrazole-4-carboxamide] | 0.101 to 1 µM | 0.0001 to 0.1 µM |  |
| O=C(Cc1ccc(-c2n[nH]c(=O)c3ccccc23)cc1)N1Cc2ccc(F)cc2C1 [Example 2, 4-(4-(2-(5-Fluoroisoindolin-2-yl)-2-oxoethyl)phenyl)phthalazin-1 (2H)-one] | 0.101 to 1 µM | 0.0001 to 0.1 µM |  |
| O=C(Nc1ccc(-c2n[nH]c(=O)c3ccccc23)cc1)c1n[nH]c(-c2ccccn2)n1 [Example 237, N-[4-(4-oxo-3,4-dihydrophthalazin-1-yl)phenyl]-5-(pyridin-2-yl)-1H-1,2,4-triazole-3-carboxamide] | 0.101 to 1 µM | 0.0001 to 0.1 µM |  |
| CC(C)(O)Cn1cc(C(=O)Nc2ccc(-c3n[nH]c(=O)c4ccccc34)cc2)c2ccccc21 [Example 138, 1-(2-hydroxy-2-methylpropyl)-N-[4-(4-oxo-3,4-dihydrophthalazin-1-yl)phenyl]-1H-indole-3-carboxamide] | 0.0001 to 0.1 µM | 0.0001 to 0.1 µM |  |
| Cc1ccn2cc(C(=O)Nc3ccc(-c4n[nH]c(=O)c5ccccc45)cc3)nc2c1 [Example 126, 7-methyl-N-[4-(4-oxo-3,4-dihydrophthalazin-1-yl)phenyl]imidazo[1,2-a]pyridine-2-carboxamide] | 0.101 to 1 µM | 0.0001 to 0.1 µM |  |
| O=C(Nc1ccc(-c2n[nH]c(=O)c3ccccc23)cc1)c1onc2ccccc12 [Example 93, N-[4-(4-oxo-3,4-dihydrophthalazin-1-yl)phenyl]-2,1-benzoxazole-3-carboxamide] | 0.0001 to 0.1 µM | 0.0001 to 0.1 µM |  |
| O=C(Nc1ccc(-c2c[nH]c(=O)c3ccccc23)cc1)c1ccc(N2CCCC2)cc1 [Example 251, N-(4-(1-Oxo-1,2-dihydroisoquinolin-4-yl)phenyl)-4-(pyrrolidin-1-yl)benzamide] | 0.101 to 1 µM | 0.0001 to 0.1 µM |  |
| CN1CCN(Cc2ccc3c(c2)CN(C(=O)Oc2ccc(-c4n[nH]c(=O)c5ccccc45)cc2)C3)CC1 [Example 72, 4-(4-Oxo-3,4-dihydrophthalazin-1-yl)phenyl 5-((4-methylpiperazin-1-yl)methyl)isoindoline-2-carboxylate] |  | 0.0001 to 0.1 µM | IC50 (ROCK1): 0.101 to 1 µM |
| CC(C)(O)CNC(=O)Cn1nc(C(=O)Nc2ccc(-c3n[nH]c(=O)c4ccccc34)cc2)c2ccccc21 [Example 334, 1-(2-((2-Hydroxy-2-methylpropyl)amino)-2-oxoethyl)-N-(4-(4-oxo-3,4-dihydrophthalazin-1-yl)phenyl)-1H-indazole-3-carboxamide] | 0.0001 to 0.1 µM | 0.0001 to 0.1 µM |  |
| Cc1cc(NC(=O)N2CCc3ccccc32)ccc1-c1n[nH]c(=O)c2ccccc12 [Example 324, N-(3-Methyl-4-(4-oxo-3,4-dihydrophthalazin-1-yl)phenyl)indoline-1-carboxamide] | 0.0001 to 0.1 µM | 0.0001 to 0.1 µM |  |
| O=C(Nc1ccc(-c2n[nH]c(=O)c3ccccc23)cc1)c1ccc(N2CCCCC2)cc1 [Example 61] | 0.0001 to 0.1 µM | 0.0001 to 0.1 µM |  |
| O=C(Nc1ccc(-c2n[nH]c(=O)c3ccccc23)cc1)C1CC(c2ccccc2)=NO1 (stereo not drawn) [Example 196, N-[4-(4-oxo-3,4-dihydrophthalazin-1-yl)phenyl]-3-phenyl-4,5-dihydro-1,2-oxazole-5-carboxamide] | 1 to 50 µM | 0.101 to 1 µM |  |
